Here are results for 24 molecules from ChEMBL document CHEMBL1138374, “Arylsulfonamides as a new class of cannabinoid CB1 receptor ligands: identification of a lead and initial SAR studies” (Bioorg Med Chem Lett, 2007).

A word on the IC50: it is the concentration needed to halve the response being measured. What is called EC50 is the concentration at which the effect is half-maximal. For orientation: ED50 means the dose at which the effect has come halfway, by size or by number of responders. For orientation: inhibition means how much of the control response was suppressed. A word on the Ki: it is a dissociation constant, usually derived from enzyme kinetics or from competition with a known ligand.

For data set [1], the target named is T1, Cannabinoid receptor 1 (Homo sapiens, UniProt P21554). The experiment in a line: Binding affinity to human recombinant CB1 receptor.
Data set [2] concerns the target T1, Cannabinoid receptor 1. The data set is described as follows: Agonist activity at human recombinant CB1 receptor expressed in CHO cells by [35S]GTP-gamma-S binding assay. Type of data set: functional, cell-based.
Data set [3] relates to Mus musculus. The experiment in a line: Induction of hypokinesia NMRI mouse at 0.3 mg/kg, ip. Type of data set: organism-based. On the set-up: dose 0.3 mg/kg, route intraperitoneal. As to conditions: in vivo.
Data set [4] concerns Mus musculus. The data set is described as follows: Induction of hypotonia NMRI mouse at 0.3 mg/kg, ip. Type of data set: organism-based. Also on record: dose 0.3 mg/kg, route intraperitoneal. Particulars: in vivo.
Data set [5] concerns Mus musculus. The experiment in a line: Reduction of nociception in ip dosed NMRI mouse during late phase (10 to 30 mins). Type of data set: functional.
In data set [6] the test system is Mus musculus. The data set is described as follows: Reduction of nociception in NMRI mouse during late phase (10 to 30 mins) at 90 mg/kg, ip by formalin test. Particulars: route intraperitoneal. On the set-up: scale not given: the % may be the effect or the level left. Type of data set: functional.
In data set [7] the test system is Mus musculus. The experiment in a line: Reduction of nociception in NMRI mouse during early phase (0 to 5 mins) at 30 mg/kg, ip by formalin test. On the set-up: scale not given: the % may be the effect or the level left. Particulars: route intraperitoneal. Type of data set: functional.
Data set [8] deals with Cannabinoid receptor 1 (Mus musculus) (UniProt P47746). Particulars: Vas deferens; 0.1 uM.
Description: Agonist activity at CB1 receptor assessed as inhibition of electrically-induced twitch contraction amplitude in mouse vas deferens at 0.1 uM relative to WIN-55212-2
Data set [9] relates to Mus musculus. The experiment in a line: Induction of hypokinesia with reduced postural tone NMRI mouse at 180 mg/kg, ip. As to conditions: in vivo. Also on record: dose 180 mg/kg, route intraperitoneal. Type of data set: organism-based.
In data set [10] the test system is Mus musculus. The data set is described as follows: Reduction of nociception in NMRI mouse during late phase (10 to 30 mins) at 10 mg/kg, ip by formalin test. Type of data set: functional. On the set-up: scale not given: the % may be the effect or the level left. Particulars: route intraperitoneal.
Data set [11] has as its system Mus musculus. The data set is described as follows: Reduction of nociception in NMRI mouse during late phase (10 to 30 mins) at 30 mg/kg, ip by formalin test. Type of data set: functional. Also on record: scale not given: the % may be the effect or the level left. As to conditions: route intraperitoneal.
The target of the next data set is Cannabinoid receptor 2 (Homo sapiens, UniProt P34972). The data set is described as follows: Binding affinity to CB2 receptor.
For data set [12], the system named is Mus musculus. The experiment in a line: Reduction of nociception in NMRI mouse during early phase (0 to 5 mins) at 80 mg/kg, ip by formalin test. Type of data set: functional. On the set-up: scale not given: the % may be the effect or the level left. Particulars: route intraperitoneal.
Data set [13] deals with Mus musculus. The experiment in a line: Reduction of nociception in NMRI mouse during early phase (0 to 5 mins) at 90 mg/kg, ip by formalin test. Type of data set: functional. Particulars: route intraperitoneal. Also on record: scale not given: the % may be the effect or the level left.
The target in data set [14] is Cannabinoid receptor 1 (Mus musculus) (UniProt P47746). As to conditions: Vas deferens.
Description: Agonist activity at CB1 receptor assessed as inhibition of electrically-induced twitch contraction amplitude in mouse vas deferens
The subject of data set [15] is Mus musculus. The experiment in a line: Reduction of nociception in NMRI mouse during late phase (10 to 30 mins) at 180 mg/kg, ip by formalin test. Type of data set: functional. Also on record: scale not given: the % may be the effect or the level left. Particulars: route intraperitoneal.
The test system of data set [16] is Mus musculus. The experiment in a line: Reduction of nociception in NMRI mouse during early phase (0 to 5 mins) at 10 mg/kg, ip by formalin test. Type of data set: functional. Particulars: route intraperitoneal. Also on record: scale not given: the % may be the effect or the level left.

T1 sequence (P21554 whole entry): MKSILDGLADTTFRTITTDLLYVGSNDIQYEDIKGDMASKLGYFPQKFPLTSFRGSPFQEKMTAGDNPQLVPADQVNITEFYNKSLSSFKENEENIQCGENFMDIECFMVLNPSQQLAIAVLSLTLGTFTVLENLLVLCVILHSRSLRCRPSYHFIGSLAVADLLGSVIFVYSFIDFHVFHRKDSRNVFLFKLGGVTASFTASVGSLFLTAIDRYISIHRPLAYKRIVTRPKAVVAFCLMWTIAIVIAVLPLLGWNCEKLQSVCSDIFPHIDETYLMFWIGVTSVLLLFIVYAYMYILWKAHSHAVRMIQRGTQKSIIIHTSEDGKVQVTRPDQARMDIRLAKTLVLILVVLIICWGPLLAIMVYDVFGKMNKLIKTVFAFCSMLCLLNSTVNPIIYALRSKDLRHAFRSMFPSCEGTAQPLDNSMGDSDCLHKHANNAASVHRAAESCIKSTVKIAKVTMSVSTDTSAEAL
Cannabinoid receptor 1 (Mus musculus), sequence (P47746 whole entry): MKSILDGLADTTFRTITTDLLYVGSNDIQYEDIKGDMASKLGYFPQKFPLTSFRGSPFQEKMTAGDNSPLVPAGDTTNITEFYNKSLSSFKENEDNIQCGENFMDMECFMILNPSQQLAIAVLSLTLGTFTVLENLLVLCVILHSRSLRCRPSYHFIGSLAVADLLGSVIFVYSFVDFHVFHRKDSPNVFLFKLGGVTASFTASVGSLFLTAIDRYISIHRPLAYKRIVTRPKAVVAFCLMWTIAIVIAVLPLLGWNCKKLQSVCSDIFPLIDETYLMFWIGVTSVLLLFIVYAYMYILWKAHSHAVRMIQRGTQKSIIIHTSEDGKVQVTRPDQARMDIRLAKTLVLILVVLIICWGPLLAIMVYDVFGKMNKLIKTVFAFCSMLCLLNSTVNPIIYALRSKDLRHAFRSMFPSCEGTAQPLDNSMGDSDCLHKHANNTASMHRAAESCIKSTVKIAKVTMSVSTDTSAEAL
Cannabinoid receptor 2, sequence (P34972 whole entry): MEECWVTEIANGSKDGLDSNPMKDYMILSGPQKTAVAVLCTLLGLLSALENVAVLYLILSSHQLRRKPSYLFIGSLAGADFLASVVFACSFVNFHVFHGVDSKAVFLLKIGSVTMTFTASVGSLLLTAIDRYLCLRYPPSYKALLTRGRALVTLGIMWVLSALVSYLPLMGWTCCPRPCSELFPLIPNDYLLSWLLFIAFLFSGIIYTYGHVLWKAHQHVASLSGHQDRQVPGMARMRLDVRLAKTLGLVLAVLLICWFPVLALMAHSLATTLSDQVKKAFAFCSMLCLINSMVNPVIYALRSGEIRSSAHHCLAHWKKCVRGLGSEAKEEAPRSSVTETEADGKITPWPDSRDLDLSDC
Description for Homo sapiens: Selectivity for CB2 receptor over human recombinant CB1 receptor

In the case of `COc1ccccc1NC(=O)c1cccc(S(=O)(=O)N2CCCCC2)c1`, the half-maximal inhibitory concentration (IC50) on Cannabinoid receptor 1 [1] was over 10 µM.
As to `O=C(Nc1ccc(Cl)c(S(=O)(=O)N2CCOCC2)c1)c1ccccc1Cl`, the EC50 at Cannabinoid receptor 1 [2] is over 10 µM. For the same molecule, the IC50 at Cannabinoid receptor 1 [1] is 1.58 µM.
As for `Cc1ccc(C(=O)Nc2cccc(F)c2)cc1S(=O)(=O)N1CCCCC1`, at Cannabinoid receptor 1 [2], the EC50 is over 10 µM. In addition, on Cannabinoid receptor 1 [1], the IC50 was 1.26 µM.
Consider `O=C(Oc1cccc2cccnc12)c1cccc(S(=O)(=O)N2CCCC2)c1`, for which the EC50 at Cannabinoid receptor 1 [2] is 0.631 µM. Further, the IC50 at Cannabinoid receptor 1 [1] is 0.158 µM.
With `O=C(Nc1ccc(Cl)c(S(=O)(=O)N2CCOCC2)c1)c1cccc2ccccc12`, the half-maximal effective concentration (EC50) at Cannabinoid receptor 1 [2] is 0.794 µM. The half-maximal inhibitory concentration (IC50) at Cannabinoid receptor 1 [1] is 0.398 µM.
In the case of `Cc1c(C(=O)c2cccc3ccccc23)c2cccc3c2n1[C@H](CN1CCOCC1)CO3` [WIN-552122], the Activity result in the data set on Mus musculus [3] and in the data set with Mus musculus [4] was “Toxic” each time. Moreover, it took a dose of 0.21 mg/kg to reach the 50% effect level with Mus musculus [5] (ED50).
`Cc1ccc(C(=O)Nc2cccc3cnccc23)cc1S(=O)(=O)N1CCCCC1`: the EC50 at Cannabinoid receptor 1 [2] is 6.31 µM. For the same molecule, the 50% inhibitory concentration (IC50) at Cannabinoid receptor 1 [1] was 1.26 µM.
Turning to `Cc1ccc(NC(=O)c2ccc(C)c(S(=O)(=O)N3CCCCC3)c2)cc1`, on Cannabinoid receptor 1 [2], the EC50 was over 10 µM. In addition, the IC50 on Cannabinoid receptor 1 [1] was 7.94 µM.
Take `Cc1ccc(C(=O)Oc2cccc3cccnc23)cc1S(=O)(=O)N1CCOCC1`: the EC50 at Cannabinoid receptor 1 [2] was 0.0126 µM. Besides, the half-maximal inhibitory concentration (IC50) at Cannabinoid receptor 1 [1] is 0.00126 µM.
For `Cc1ccc(NC(=O)c2ccccc2Oc2ccccc2)cc1S(=O)(=O)N1CCOCC1`, the 50% effective concentration (EC50) on Cannabinoid receptor 1 [2] was over 10 µM. Also, the IC50 on Cannabinoid receptor 1 [1] was 2 µM.
With `Cc1ccc(C(=O)Oc2cccc3cccnc23)cc1S(=O)(=O)N1CCCCC1`, the Activity with Mus musculus [6] is recorded as -71%; in the data set with Mus musculus [7], -1%; in the data set on Mus musculus [9], “Toxic”; in the data set on Mus musculus [10] it was -15%; with Mus musculus [11] it was -50%; in the data set on Mus musculus [12], -54%. For the same molecule, the Activity is reported as -53% in the data set on Mus musculus [13], -59% in the data set on Mus musculus [15] and -1% in the data set on Mus musculus [16]. Further, the EC50 at Cannabinoid receptor 1 [2] is 0.01 µM. Besides, the inhibition in data set [8] amounted to 87.3%. Further, at Cannabinoid receptor 1 [1], the IC50 was 0.000794 µM. Also, the logSI in the data set listed under Homo sapiens was 1. Besides, at Cannabinoid receptor 2, the affinity corresponds to a Ki of 0.0251 µM. The pD2 in [14] amounted to 6.42.
Turning to `Cc1ccc(C(=O)Oc2ccccc2Br)cc1S(=O)(=O)N1CCOCC1`, at Cannabinoid receptor 1 [2], the half-maximal effective concentration (EC50) was 0.398 µM. The half-maximal inhibitory concentration (IC50) at Cannabinoid receptor 1 [1] was 0.0316 µM.
For `Cc1ccc(C(=O)O)cc1S(=O)(=O)N1CCCCC1`, in that order: over 10 µM and over 10 µM.
With `Nc1cccc(NC(=O)c2cccc(S(=O)(=O)N3CCCCC3)c2)c1`, the concentration giving a half-maximal response (EC50) on Cannabinoid receptor 1 [2] is over 10 µM. The IC50 on Cannabinoid receptor 1 [1] is 5.01 µM.
As to `Cc1ccc(NC(=O)c2ccc(C)c(S(=O)(=O)N3CCCCC3)c2)nc1`, the EC50 on Cannabinoid receptor 1 [2] was over 10 µM. Besides, at Cannabinoid receptor 1 [1], the IC50 was 3.16 µM.
As to `O=C(Nc1ccccc1O)c1ccc(Cl)c(S(=O)(=O)N2CCCCCC2)c1`, the 50% effective concentration (EC50) on Cannabinoid receptor 1 [2] was 1.26 µM. Besides, the IC50 at Cannabinoid receptor 1 [1] is 0.2 µM.
For `Cc1ccc(NC(=O)c2cccc(C#N)c2)cc1S(=O)(=O)N1CCOCC1` the same measures were 5.01 µM and 1.58 µM.
On to `Cc1ccc(C(=O)Nc2ccccc2)cc1S(=O)(=O)N1CCCCC1`, for which, on Cannabinoid receptor 1 [2], the concentration giving a half-maximal response (EC50) is over 10 µM. At Cannabinoid receptor 1 [1], the IC50 is 3.16 µM.
For the molecule `Cc1ccc(C(=O)Nc2ccccc2)cc1S(=O)(=O)N1CCCC1`, the EC50 at Cannabinoid receptor 1 [2] is over 10 µM. Further, the half-maximal inhibitory concentration (IC50) at Cannabinoid receptor 1 [1] is 6.31 µM.
On to `COc1ccccc1OC(=O)c1ccc(C)c(S(=O)(=O)N2CCOCC2)c1`, for which the concentration for a half-maximal effect (EC50) at Cannabinoid receptor 1 [2] is 0.0631 µM. In addition, the IC50 at Cannabinoid receptor 1 [1] was 3.16 µM.
For `O=C(Oc1cccc2cccnc12)c1cccc(S(=O)(=O)N2CCCCCC2)c1`, the EC50 at Cannabinoid receptor 1 [2] was 0.2 µM. The IC50 on Cannabinoid receptor 1 [1] is 0.0501 µM.
As to `COc1ccc(C(=O)Oc2cccc3cccnc23)cc1S(=O)(=O)N1CCOCC1`, the concentration giving a half-maximal response (EC50) on Cannabinoid receptor 1 [2] was 0.398 µM. Further, at Cannabinoid receptor 1 [1], the 50% inhibitory concentration (IC50) was 0.0398 µM.
As to `O=C(Nc1ccc(Cl)c(S(=O)(=O)N2CCOCC2)c1)c1ccccc1`, on Cannabinoid receptor 1 [2], the concentration giving a half-maximal response (EC50) is 0.631 µM. Further, the half-inhibitory concentration (IC50) at Cannabinoid receptor 1 [1] was 3.98 µM.
In the case of `O=C(Oc1cccc2cccnc12)c1cccc(S(=O)(=O)N2CCCCC2)c1`, on Cannabinoid receptor 1 [2], the EC50 is 0.0501 µM. The concentration for half-maximal inhibition (IC50) on Cannabinoid receptor 1 [1] was 0.0158 µM.
